Laboratory results reported in patent US10815197B2, “N-sulfonyl benzamides as voltage-gated sodium channel inhibitors” (SHANGHAI HAIYAN PHARMACEUTICAL TECHNOLOGY CO., LTD., priority 2016, dated 2020).

Columns and labels:
[1] = target: T1, hERG potassium ion channel (Homo sapiens, UniProt Q12809); experiment: Effect on hERG potassium ion channel (CHO hERG cells, manual patch clamp); type: cell-based; settings: final 10 μM test concentration, read-out: hERG inhibitory concentration IC50
T1 construct: host or cells: CHO
Description: Assay 2: Effect on hERG Potassium Ion Channel 2.1 Cell Culture 2.1.1 Cells used in this experiment were CHO cell lines (supplied by Sophion Bioscience, Denmark) which were hERG cDNA transfectant and stably express hERG channels, and cell progeny was P15. Cells were cultured in medium containing the following ingredients Invitrogen): Ham's F12 medium, 10% (v/v) inactivated fetal bovine serum, […] Geneticin. 2.1.2 CHO hERG cells were grown in Petri dishes containing the above medium and cultured in an incubator containing 5% CO2 at 37° C. CHO hERG cells were transferred onto round glass plates in Petri dishes, and grown on the same culture medium under culture conditions as above for 24 h to 48 h prior to the electrophysiological experiments, and the density of CHO hERG cells on each round glass plate needs to meet the requirements that the vast majority of cells are independent and individual. 2.2 Experimental Solution The following solutions (supplied by Sophion) were used for electrophysiological recording as shown in Table 3. The reagents used in this test were provided by Sigma. [table] 2.3 Electrophysiological Recording System In this experiment, whole-cell current recording was performed using a manual patch clamp system (HEKA EPC-10 signal amplification and digital conversion system, purchased from HEKA Electronic, Germany). The round glass slide, surface of which CHO hERG cells were grown on was placed in an electrophysiological recording slot under an inverted microscope. Extracellular fluid was used for steady perfision in recording slot (approximately 1 ml per minute). A conventional whole-cell patch clamp current recording technique was used in the experiment. Unless otherwise specified, experiments were performed at normal room temperature (25° C.). Cell clamping was at −80 mV. Cell clamping voltage depolarized to +20 mV to activate hERG potassium channel, clamping to −50 mV after 5 sec to eliminate inactivation and generate tail currents. The tail current peak was used as a value for hERG current. The hERG potassium current recorded in the above steps could be superfused for test drug after the steady perfusion state of the extracellular fluid in the recording slot is stabilized until the inhibition of the hERG current by the drug reached a steady state. The coincidence of the last three consecutive current recording lines was generally used as a criterion to determine whether the state is stable. After reaching a steady state, perfused with extracellular fluid until hERG current returned to the value before the drug adding. One or more drugs could be tested on a single cell, or multiple concentrations of the same drug, but needed to be rinsed with extracellular fluid between different drugs. […] 2.4 Compound Treatment and Dilution The compound was firstly dissolved in DMSO to a concentration of 10 mM and then the compound was diluted 1000-fold to the final […] test concentration using an extracellular solution. The final concentration of DMSO in the compound test solution was equal to 0.1%. […] All stock solutions and test solutions were subjected to regular 5-10 minute sonication and shaken to ensure complete dissolution of the compound. 2.5 Data Analysis The test data were analyzed by the data analysis software provided by HEKA Patchmaster (V2x73.2), Microsoft Excel and Graphpad Prism 5.0.

hNav1.7 = target: T2, hNav1.7 (Homo sapiens, UniProt Q15858); experiment: Manual patch clamp experiment hNav1.7 (CHO-hNav1.7 stable cell line); type: cell-based; settings: for inhibition at 0.1 µM: compound at 100 nM, read-out: Inhibition of Nav1.7 100 nM(%); for inhibition at 1 µM: compound at 1000 nM, read-out: Inhibition of Nav1.7 1000 nM(%)
T2 construct: host or cells: CHO
From the text: Assay 1: Manual Patch Clamp Experiment of Sodium Ion (hNav1.7, hNav1.5 and hNaV1.8) and Calcium Ion (hCav3.2) Channels
hNav1.7, hNav1.5 Manual Patch Clamp Experiment:
Patch voltage clamp electrophysiology allows for the direct measurement and quantification of current block of voltage-gated sodium channels (NaV's), and allows the determination of the time and voltage-dependence of block which has been interpreted as differential binding to the resting, open and inactivated states of the sodium channel to reflect the compound's inhibitory or activating effects (Hille, B., Journal of General Physiology (1977), 69: 497-515).
Representative compounds of the present invention were subject to a manual patch clamp experiment and the purpose of this study was to test the effect of compounds on this ion channel current on a stable cell line transfected with a specific ion channel using a manual patch clamp method. The used stable cell lines CHO-hNav1.7 and HEK-hNav1.5 were from Genionics and WuXi Apptec (Shanghai) respectively.
Manual patch clamp experimental program is as follows:
(1) Preparation of solutions and compounds: The whole cell patch clamp technique was used to record hNav1.7 and hNav1.5 currents. In the experiment, the composition of extracellular fluid (mM): HEPES: 5, NaCl: 40, KCl: CaCl2: 1, MgCl2: 1, CdCl2: 0.1, TEA-Cl: 20. The pH was adjusted to 7.3 with NaOH and the osmotic pressure was adjusted to 310-320 mOsm with sucrose, filtered and stored at 4° C. The composition of the intracellular fluid (mM): HEPES: 10, NaCl: 10, CsOH: 5, CsF: 140, EGTA: 1. The pH was adjusted to 7.3 with CsOH and the osmotic pressure was adjusted to 280-290 mOsm with sucrose, filtered and stored at −20° C.
The positive control and the test compound were firstly dissolved in 100% DMSO (Sigma-Aldrich, D2650), configured as stock solution at a concentration (100 nM, 1000 nM).) The above stock solution was serially diluted with DMSO prior to the experiment, the solution was further diluted with extracellular solution to obtain the test solution of the desired concentration.
(2) Manual Patch Clamp Experiment: The cell suspension was added to a 35 mm petri dish and placed on an inverted microscope stage. The cells were perfused with an extracellular fluid and the flow rate was 1-2 mL/min after cell adherence. The glass microelectrode was prepared in two steps by a microelectrode puller with an inlet water resistance of 2-5 MΩ. A/D-D/A digital-analog conversion was performed by Digidata 1440 (Molecular Devices) and pCLAMP software (version 10.2, Molecular Devices) for stimulation and signal acquisition; the signal was amplified by patch clamp amplifier (Multiclamp 700B, Molecular Devices), and filtering is 4 KHz.
Two different voltage stimulation procedures were used in the hNav1.7 and hNav1.5 manual patch clamp experiments.
One is the inactivation stimulation program, the clamp potential is set at V1/2 of the corresponding channel, i.e., about 50% of the channels are inactivated, then the voltage is applied to −120 mV for 50 ms, then depolarized to −10 mV for 20 ms leading to sodium current, and finally returned to the clamp potential. This stimulation program can also be called channel state-dependent voltage stimulation program.
The other is the non-inactivation stimulation program, the clamp potential is maintained at −120 mV, voltage stimulation is given to −10 mV for 20 ms leading to sodium current, and finally returned to the clamp potential. That is, all channels have not experienced inactivation status, but activate directly from the resting state under the conditions of the stimulation program.
The time intervals of these two voltage stimulation programs were 10 s. The inhibitory effect of the compound was calculated by the change of the current before and after dosing, the IC50 value was fitted by the Hill equation.

T2 sequence (Q15858 whole entry): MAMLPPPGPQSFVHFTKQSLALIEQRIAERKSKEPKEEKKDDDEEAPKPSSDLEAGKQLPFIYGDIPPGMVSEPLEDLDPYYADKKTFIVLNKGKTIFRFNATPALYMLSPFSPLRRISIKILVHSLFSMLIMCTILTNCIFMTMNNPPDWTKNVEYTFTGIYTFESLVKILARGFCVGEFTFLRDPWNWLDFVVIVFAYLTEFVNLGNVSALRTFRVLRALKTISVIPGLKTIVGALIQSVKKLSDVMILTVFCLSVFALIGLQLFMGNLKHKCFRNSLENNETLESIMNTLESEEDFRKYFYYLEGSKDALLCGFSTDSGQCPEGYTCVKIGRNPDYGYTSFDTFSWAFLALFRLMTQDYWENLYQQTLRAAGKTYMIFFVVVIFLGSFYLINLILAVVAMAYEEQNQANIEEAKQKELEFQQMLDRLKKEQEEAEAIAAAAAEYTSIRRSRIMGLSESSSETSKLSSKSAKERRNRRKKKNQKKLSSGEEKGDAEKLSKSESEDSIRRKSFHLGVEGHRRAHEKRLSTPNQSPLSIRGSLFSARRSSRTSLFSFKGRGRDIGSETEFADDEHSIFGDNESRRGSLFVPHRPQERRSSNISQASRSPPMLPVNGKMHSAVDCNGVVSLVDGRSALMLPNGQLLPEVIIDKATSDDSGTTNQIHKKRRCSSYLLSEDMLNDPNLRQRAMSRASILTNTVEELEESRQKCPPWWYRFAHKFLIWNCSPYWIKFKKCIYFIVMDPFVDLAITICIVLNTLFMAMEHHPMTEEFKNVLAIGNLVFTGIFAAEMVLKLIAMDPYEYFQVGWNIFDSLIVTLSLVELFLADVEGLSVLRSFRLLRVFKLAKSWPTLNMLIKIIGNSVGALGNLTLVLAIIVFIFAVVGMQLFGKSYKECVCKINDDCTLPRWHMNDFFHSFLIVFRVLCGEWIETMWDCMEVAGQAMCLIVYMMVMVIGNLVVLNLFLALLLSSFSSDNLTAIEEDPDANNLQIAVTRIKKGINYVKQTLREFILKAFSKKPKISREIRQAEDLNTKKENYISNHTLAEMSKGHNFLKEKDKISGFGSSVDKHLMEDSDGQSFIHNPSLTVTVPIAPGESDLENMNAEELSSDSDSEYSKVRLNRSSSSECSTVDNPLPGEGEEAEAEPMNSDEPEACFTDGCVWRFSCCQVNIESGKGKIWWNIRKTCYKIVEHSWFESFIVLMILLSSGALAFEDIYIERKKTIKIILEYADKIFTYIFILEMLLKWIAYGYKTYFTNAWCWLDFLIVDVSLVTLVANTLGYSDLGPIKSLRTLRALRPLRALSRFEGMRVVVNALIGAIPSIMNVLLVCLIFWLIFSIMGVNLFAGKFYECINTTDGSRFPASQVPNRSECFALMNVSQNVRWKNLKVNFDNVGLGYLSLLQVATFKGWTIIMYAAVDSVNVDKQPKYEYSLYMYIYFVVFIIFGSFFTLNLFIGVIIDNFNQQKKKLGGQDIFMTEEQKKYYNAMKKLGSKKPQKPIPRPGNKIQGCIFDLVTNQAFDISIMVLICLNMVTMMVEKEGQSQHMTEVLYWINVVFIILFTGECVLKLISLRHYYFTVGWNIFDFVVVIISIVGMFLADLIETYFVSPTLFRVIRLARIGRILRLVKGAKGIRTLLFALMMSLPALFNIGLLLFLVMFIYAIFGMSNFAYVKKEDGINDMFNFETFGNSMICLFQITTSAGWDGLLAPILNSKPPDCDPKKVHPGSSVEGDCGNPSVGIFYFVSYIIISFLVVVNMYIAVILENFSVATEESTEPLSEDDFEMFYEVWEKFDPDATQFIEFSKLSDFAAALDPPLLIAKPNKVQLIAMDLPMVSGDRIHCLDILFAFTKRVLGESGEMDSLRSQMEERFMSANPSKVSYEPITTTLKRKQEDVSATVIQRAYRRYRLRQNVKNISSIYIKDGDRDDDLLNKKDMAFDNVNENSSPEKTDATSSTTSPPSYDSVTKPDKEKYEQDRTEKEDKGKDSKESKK
T1 sequence (Q12809 whole entry): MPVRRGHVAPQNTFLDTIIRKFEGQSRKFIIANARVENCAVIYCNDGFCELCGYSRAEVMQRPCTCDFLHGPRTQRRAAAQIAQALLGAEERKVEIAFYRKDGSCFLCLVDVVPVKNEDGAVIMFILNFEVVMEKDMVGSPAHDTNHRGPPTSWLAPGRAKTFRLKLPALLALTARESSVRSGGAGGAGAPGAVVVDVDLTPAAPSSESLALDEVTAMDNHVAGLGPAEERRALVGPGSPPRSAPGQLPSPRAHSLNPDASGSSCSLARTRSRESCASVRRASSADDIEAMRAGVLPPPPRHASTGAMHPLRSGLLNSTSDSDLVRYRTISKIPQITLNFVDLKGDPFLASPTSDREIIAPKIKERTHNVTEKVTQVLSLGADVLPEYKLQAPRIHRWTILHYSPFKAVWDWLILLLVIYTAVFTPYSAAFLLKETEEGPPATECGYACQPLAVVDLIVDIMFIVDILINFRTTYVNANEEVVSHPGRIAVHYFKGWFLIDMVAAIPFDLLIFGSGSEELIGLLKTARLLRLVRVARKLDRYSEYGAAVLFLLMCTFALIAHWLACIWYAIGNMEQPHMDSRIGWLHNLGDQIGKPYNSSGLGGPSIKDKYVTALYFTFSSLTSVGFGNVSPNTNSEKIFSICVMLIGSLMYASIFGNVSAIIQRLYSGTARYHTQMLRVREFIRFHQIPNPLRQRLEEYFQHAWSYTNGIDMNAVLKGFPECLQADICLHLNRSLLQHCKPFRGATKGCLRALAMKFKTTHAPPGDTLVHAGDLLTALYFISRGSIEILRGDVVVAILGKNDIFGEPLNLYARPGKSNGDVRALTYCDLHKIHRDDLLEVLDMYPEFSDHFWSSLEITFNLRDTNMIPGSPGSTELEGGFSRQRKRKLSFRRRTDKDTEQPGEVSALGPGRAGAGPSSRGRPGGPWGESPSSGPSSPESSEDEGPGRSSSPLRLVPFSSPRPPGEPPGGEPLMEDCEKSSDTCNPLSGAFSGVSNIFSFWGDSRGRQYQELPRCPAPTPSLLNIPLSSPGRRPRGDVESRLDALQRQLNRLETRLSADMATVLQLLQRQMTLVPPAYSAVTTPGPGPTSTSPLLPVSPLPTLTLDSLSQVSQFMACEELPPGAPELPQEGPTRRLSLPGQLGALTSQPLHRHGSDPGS

| SMILES | IC50 [1] [µM] | inhibition at 0.1 µM (hNav1.7) [%] | inhibition at 1 µM (hNav1.7) [%] |
| --- | --- | --- | --- |
| Cc1cc(N2CCN(Cc3cc(F)c(C(=O)NS(=O)(=O)C4CC4)cc3Cl)CC2)c(C)cc1Cl [Compound Z-183] | > 10 | 90.8 | 99.5 |
| Cc1cc(N2CCN(Cc3cc(F)c(C(=O)NS(=O)(=O)C4CC4)cc3Cl)CC2)c(F)cc1Cl [Compound Z-186] | > 10 | 83.3 | 100 |
| Cc1c(Cl)ccc(N2CCN(Cc3cc(F)c(C(=O)NS(=O)(=O)C4CC4)cc3Cl)CC2)c1Cl [Compound Z-187] | > 10 | 89.7 | 100 |
